A value given as a limit tells only on which side of the number the result lay.

One experiment has as its target T1, TYRO3 (Homo sapiens, UniProt Q06418).
T1 sequence (Q06418 41-890): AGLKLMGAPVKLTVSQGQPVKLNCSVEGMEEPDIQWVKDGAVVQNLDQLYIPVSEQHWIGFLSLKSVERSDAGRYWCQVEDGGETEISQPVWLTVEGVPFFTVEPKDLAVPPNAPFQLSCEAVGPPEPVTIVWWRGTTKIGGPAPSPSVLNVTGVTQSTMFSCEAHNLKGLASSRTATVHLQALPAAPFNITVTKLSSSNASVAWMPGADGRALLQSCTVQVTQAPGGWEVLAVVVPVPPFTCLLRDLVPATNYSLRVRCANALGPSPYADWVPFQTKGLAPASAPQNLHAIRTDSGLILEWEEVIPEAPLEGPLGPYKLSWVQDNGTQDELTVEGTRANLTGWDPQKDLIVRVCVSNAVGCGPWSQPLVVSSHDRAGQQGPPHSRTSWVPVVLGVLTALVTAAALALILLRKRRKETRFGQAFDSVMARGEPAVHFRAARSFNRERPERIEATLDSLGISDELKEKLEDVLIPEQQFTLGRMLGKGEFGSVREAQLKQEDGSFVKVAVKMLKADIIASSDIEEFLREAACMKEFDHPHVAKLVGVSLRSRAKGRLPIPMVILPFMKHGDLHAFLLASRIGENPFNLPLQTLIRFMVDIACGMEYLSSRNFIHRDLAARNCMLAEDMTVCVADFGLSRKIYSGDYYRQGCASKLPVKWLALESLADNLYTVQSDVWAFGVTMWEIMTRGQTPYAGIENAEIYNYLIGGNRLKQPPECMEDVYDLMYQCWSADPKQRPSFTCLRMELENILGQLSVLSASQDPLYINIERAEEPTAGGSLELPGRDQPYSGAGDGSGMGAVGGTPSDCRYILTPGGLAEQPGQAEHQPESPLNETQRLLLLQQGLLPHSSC
As to the kind of experiment: TR-FRET kinase activity assay, TYRO3. The class given is biochemical. As to conditions: ATP at Km, 60 minutes. In outline:
(§1)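 Recombinant human kinases, fluorescent peptide substrate, ATP at Km; 1 h RT, pH 7.5. EDTA-quenched, Eu antibody added, TR-FRET read; IC50 determined.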

A further experiment addresses T2, MERTK (Homo sapiens, UniProt Q12866).
T2 sequence (Q12866 21-999): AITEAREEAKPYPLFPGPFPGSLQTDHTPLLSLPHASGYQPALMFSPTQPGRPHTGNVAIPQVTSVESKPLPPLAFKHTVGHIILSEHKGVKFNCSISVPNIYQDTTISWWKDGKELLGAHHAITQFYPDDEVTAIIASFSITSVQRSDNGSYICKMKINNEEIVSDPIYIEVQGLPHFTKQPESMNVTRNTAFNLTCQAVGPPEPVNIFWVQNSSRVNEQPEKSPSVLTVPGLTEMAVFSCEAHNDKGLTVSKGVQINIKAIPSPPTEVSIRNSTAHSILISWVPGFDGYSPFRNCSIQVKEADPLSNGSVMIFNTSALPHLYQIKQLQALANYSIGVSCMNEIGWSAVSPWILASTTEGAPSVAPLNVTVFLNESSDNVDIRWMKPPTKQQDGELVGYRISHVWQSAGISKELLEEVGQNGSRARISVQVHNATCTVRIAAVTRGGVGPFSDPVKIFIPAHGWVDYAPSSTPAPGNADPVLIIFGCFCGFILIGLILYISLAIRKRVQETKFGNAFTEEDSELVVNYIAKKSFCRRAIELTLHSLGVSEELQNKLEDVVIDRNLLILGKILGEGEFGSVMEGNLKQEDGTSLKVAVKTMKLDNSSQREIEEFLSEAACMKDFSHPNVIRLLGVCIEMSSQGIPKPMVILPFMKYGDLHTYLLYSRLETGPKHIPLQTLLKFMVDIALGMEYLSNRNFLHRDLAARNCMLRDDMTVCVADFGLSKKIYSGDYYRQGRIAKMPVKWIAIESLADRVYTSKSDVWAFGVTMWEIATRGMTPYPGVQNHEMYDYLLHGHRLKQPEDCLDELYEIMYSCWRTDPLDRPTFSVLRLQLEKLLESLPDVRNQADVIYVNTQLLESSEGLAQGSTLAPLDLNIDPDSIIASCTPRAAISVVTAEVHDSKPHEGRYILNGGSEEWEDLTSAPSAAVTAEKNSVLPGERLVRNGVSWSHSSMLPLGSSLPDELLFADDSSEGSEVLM
As to the kind of experiment: TR-FRET kinase activity assay, MERTK. The class given is biochemical. As to conditions: for IC50: TR-FRET activity assay, ATP at Km, 60 minutes, read-out: Mer IC50. An outline of the steps: as §1

Setting [1] is: ratio of Mer to FLT3: FLT3 IC50/Mer IC50.
Where [2] appears, read: ratio calculated as FLT3 IC50/Mer IC50.

For the compound `COC[C@H](C)Nc1ncc2c(-c3cnn([C@H]4CCNC4=O)c3)cc([C@H]3CC[C@H](O)CC3)n2n1` [Compound 348], the IC50 against TYRO3 and at MERTK was ≤ 100 nM each time. Further, the “FLT3/Mer ratio (FLT3 IC50/Mer IC50)” value on MERTK (setting [1]) is given as “+++ (“+++” represents a ratio of >100)”.

In the case of `CC[C@H](C)Nc1ncc2c(-c3cncc(S(C)(=O)=O)c3)cc([C@H]3CC[C@@H](O)CC3)n2n1` [Compound 120], the IC50 at TYRO3 and at MERTK was ≤ 100 nM in each case. At MERTK (setting [1]), the “FLT3/Mer ratio (FLT3 IC50/Mer IC50)” value was “+++ (“+++” represents a ratio of >100)”.

Take `COC[C@H](C)Nc1ncc2c(-c3cnn(CC4CCOCC4)c3)cc([C@H]3CC[C@H](O)CC3)n2n1` [Compound 392]: the IC50 on TYRO3 and on MERTK was ≤ 100 nM each time. For the same compound, at MERTK (setting [1]), the “FLT3/Mer ratio (FLT3 IC50/Mer IC50)” value is recorded as “+++ (“+++” represents a ratio of >100)”.

`COC[C@H](C)Nc1ncc2c(-c3ccnc(O[C@@H]4CCCNC4)c3)cc([C@H]3CC[C@H](O)CC3)n2n1` [Compound 390]: the IC50 against TYRO3 and on MERTK was ≤ 100 nM in each case. Moreover, the “FLT3/Mer ratio (FLT3 IC50/Mer IC50)” value at MERTK (setting [1]) is given as “+++ (“+++” represents a ratio of >100)”.

Take `COCC(C)Nc1ncc2c(-c3cnn(CC4CCCO4)c3)cc(C3CCC(O)CC3)n2n1` (stereo not drawn) [Compound 379]: the concentration for half-maximal inhibition (IC50) against TYRO3 and on MERTK was ≤ 100 nM throughout. Also, at MERTK (setting [1]), the “FLT3/Mer ratio (FLT3 IC50/Mer IC50)” value was “+++ (“+++” represents a ratio of >100)”.

Take `C[C@@H](CN(C)C)Nc1ncc2c(-c3cnn(C4COC4)c3)cc([C@H]3CC[C@H](O)CC3)n2n1` [Compound 387]: the IC50 against TYRO3 and on MERTK was 100 to 1000 nM throughout. Also, the “FLT3/Mer ratio (FLT3 IC50/Mer IC50)” value at MERTK (setting [1]) was “++ (“++” represents a ratio of between 10 and 100)”.

Turning to `COC[C@H](C)Nc1ncc2c(-c3cnn(CS(C)(=O)=O)c3)cc([C@H]3CC[C@H](O)CC3)n2n1` [Compound 419], the IC50 against TYRO3 and on MERTK was ≤ 100 nM throughout. In addition, the “FLT3/Mer ratio (FLT3 IC50/Mer IC50)” value on MERTK (setting [2]) was “+++ (“+++” represents a ratio of >100)”.

In the case of `COC[C@H](C)Nc1ncc2c(-c3ccnc(O[C@H]4CCCNC4)c3)cc([C@H]3CC[C@H](O)CC3)n2n1` [Compound 389], the IC50 against TYRO3 and at MERTK was ≤ 100 nM throughout. On MERTK (setting [1]), the “FLT3/Mer ratio (FLT3 IC50/Mer IC50)” value was “+++ (“+++” represents a ratio of >100)”.

In the case of `COC[C@H](C)Nc1ncc2c(-c3cnn(C(C)(C)C(=O)N4C[C@@H](C)O[C@H](C)C4)c3)cc([C@H]3CC[C@H](O)CC3)n2n1` [Compound 367], the IC50 against TYRO3 and on MERTK was ≤ 100 nM in each case. In addition, the “FLT3/Mer ratio (FLT3 IC50/Mer IC50)” value at MERTK (setting [1]) is reported as “+++ (“+++” represents a ratio of >100)”.

Consider `CNC(=O)c1cc(-c2cc([C@H]3CC[C@H](O)CC3)n3nc(N[C@@H](C)COC(F)F)ncc23)ccn1` [Compound 411], for which the IC50 against TYRO3 and on MERTK was ≤ 100 nM each time. Also, the “FLT3/Mer ratio (FLT3 IC50/Mer IC50)” value on MERTK (setting [2]) was “+++ (“+++” represents a ratio of >100)”.

In the case of `COC[C@H](C)Nc1ncc2c(-c3ccnc(OC4CCNCC4)c3)cc([C@H]3CC[C@H](O)CC3)n2n1` [Compound 369], the IC50 on TYRO3 and at MERTK was ≤ 100 nM in each case. Moreover, the “FLT3/Mer ratio (FLT3 IC50/Mer IC50)” value at MERTK (setting [1]) is “+++ (“+++” represents a ratio of >100)”.

As to `COC[C@H](C)Nc1ncc2c(-c3ccnc(O[C@@H]4CCCN(C)C4)c3)cc([C@H]3CC[C@H](O)CC3)n2n1` [Compound 404], the IC50 on TYRO3 and at MERTK was ≤ 100 nM throughout. Further, the “FLT3/Mer ratio (FLT3 IC50/Mer IC50)” value at MERTK (setting [2]) is reported as “+++ (“+++” represents a ratio of >100)”.

Consider `CNS(=O)(=O)c1ccc(-c2cc([C@H]3CC[C@H](O)CC3)n3nc(N[C@@H](C)CC(F)(F)F)ncc23)cn1` [Compound 360], for which the IC50 against TYRO3 and at MERTK was ≤ 100 nM each time. At MERTK (setting [1]), the “FLT3/Mer ratio (FLT3 IC50/Mer IC50)” value was “++ (“++” represents a ratio of between 10 and 100)”.

As to `CCCCC[C@H](C)Nc1ncc2c([C@H]3CC[C@@H](C(=O)O)CC3)cc([C@H]3CC[C@H](O)CC3)n2n1` [Compound 125, (cis)-4-(2-((S)-heptan-2-ylamino)-7-((trans)-4-hydroxycyclohexyl)pyrrolo[2,1-f][1,2,4]triazin-5-yl)cyclohexanecarboxylic acid], the IC50 against TYRO3 was 100 to 1000 nM; on MERTK, ≤ 100 nM. Besides, the “FLT3/Mer ratio (FLT3 IC50/Mer IC50)” value at MERTK (setting [1]) is “++ (“++” represents a ratio of between 10 and 100)”.

Consider `COC[C@H](C)Nc1ncc2c(-c3cnn(CC4COC4)c3)cc([C@H]3CC[C@H](O)CC3)n2n1` [Compound 420], for which the IC50 against TYRO3 and at MERTK was ≤ 100 nM in each case. The “FLT3/Mer ratio (FLT3 IC50/Mer IC50)” value on MERTK (setting [2]) was “+++ (“+++” represents a ratio of >100)”.

Take `COC[C@H](C)Nc1ncc2c(-c3cnn(C4CCN(C)C4=O)c3)cc([C@H]3CC[C@H](O)CC3)n2n1` (stereo partly drawn) [Compound 394, 3-(4-(7-((trans)-4-hydroxycyclohexyl)-2-(((S)-1-methoxypropan-2-yl)amino)pyrrolo[2,1-f][1,2,4]triazin-5-yl)-1H-pyrazol-1-yl)-1-methylpyrrolidin-2-one]: the IC50 at TYRO3 and at MERTK was ≤ 100 nM throughout. Besides, the “FLT3/Mer ratio (FLT3 IC50/Mer IC50)” value on MERTK (setting [1]) is listed as “+++ (“+++” represents a ratio of >100)”.

Turning to `COC[C@H](C)Nc1ncc2c(-c3ccnc(O[C@H]4CCCN(C)C4)c3)cc([C@H]3CC[C@H](O)CC3)n2n1` [Compound 403], the IC50 at TYRO3 and at MERTK was ≤ 100 nM in each case. Moreover, the “FLT3/Mer ratio (FLT3 IC50/Mer IC50)” value on MERTK (setting [2]) is listed as “+++ (“+++” represents a ratio of >100)”.

Take `COC[C@H](C)Nc1ncc2c(-c3cnn(C4(C(=O)N5CCCC5)CC4)c3)cc([C@H]3CC[C@H](O)CC3)n2n1` [Compound 408]: the IC50 against TYRO3 and at MERTK was ≤ 100 nM throughout. The “FLT3/Mer ratio (FLT3 IC50/Mer IC50)” value on MERTK (setting [2]) is “+++ (“+++” represents a ratio of >100)”.

Turning to `COC[C@H](C)Nc1ncc2c(-c3cnn([C@H]4CCC(C(=O)OC(C)(C)C)C4)c3)cc([C@H]3CC[C@H](O)CC3)n2n1` (stereo partly drawn) [Compound 365], the IC50 against TYRO3 and at MERTK was ≤ 100 nM in each case. The “FLT3/Mer ratio (FLT3 IC50/Mer IC50)” value at MERTK (setting [1]) is “+++ (“+++” represents a ratio of >100)”.

For the compound `COC[C@H](C)Nc1ncc2c(-c3ccnc(N[C@@H]4CCOC4)c3)cc([C@H]3CC[C@H](O)CC3)n2n1` [Compound 416], the IC50 against TYRO3 and on MERTK was ≤ 100 nM throughout. Besides, on MERTK (setting [2]), the “FLT3/Mer ratio (FLT3 IC50/Mer IC50)” value was “+++ (“+++” represents a ratio of >100)”.

For `COCC(C)Nc1ncc2c(C3CCCN(C(C)=O)C3)cc(C3CCC(O)CC3)n2n1` (stereo not drawn) [Compound 371], the IC50 on TYRO3 is 100 to 1000 nM; at MERTK it was ≤ 100 nM. The “FLT3/Mer ratio (FLT3 IC50/Mer IC50)” value at MERTK (setting [1]) is given as “+++ (“+++” represents a ratio of >100)”.

On to `CNC(=O)c1cncc(-c2cc([C@H]3CC[C@H](O)CC3)n3nc(N[C@@H](C)COC(F)F)ncc23)c1` [Compound 398], for which the IC50 against TYRO3 and at MERTK was ≤ 100 nM in each case. The “FLT3/Mer ratio (FLT3 IC50/Mer IC50)” value at MERTK (setting [2]) is “+++ (“+++” represents a ratio of >100)”.

The values above are taken from patent US11040981B2, “Pyrrolotriazine compounds and methods of inhibiting TAM kinases” (Syros Pharmaceuticals, Inc., priority 2017, dated 2021).
